Among the data in US7495027B2, “3-aryl-4-hydroxyfuranone compounds and the human and animal health use thereof” (Wyeth, priority 2003, dated 2009) are Toxicity, Rating and Mortality values, retold here.

A short description of data set [1]: Toxicity in treated gerbils (deaths or significant weight loss). Also on record: key: +: Toxicity is indicated for those groups having one or more animals expired. The class given is in vivo. Particulars: single oral dose of 50 mg/kg. The method, then: In this evaluation, gerbils are infected with Trichostrongylus columbriformis infective larvae at a concentration of approximately 800 L3/mL. Larvae for gerbil infections are cultured from feces from sheep previously infected with T. colubriformis. One week post infection, test compounds are administered by gavage as a single oral dose of 50 mg/kg of body weight. For each group of 3 gerbils, 10 mg of test compound are dissolved in 2 mL of PEG 400:DMSO (1:2 v/v) and each animal is administered the test solution at a rate of 0.1 mL/10 g of body weight. […] All animals are observed daily for morbidity and mortality. Four days post-treatment, all animals are weighed and necropsied. Worm counts are conducted with the use of stereoscopes and counters.

A further data set relates to C. elegans. As to the kind of experiment: Efficacy against nematodes (C. elegans motility rating). Set-up: key: 0: no effect; 7: reduced movement in 24 h; 8: dead in 24 h; 9: dead in 4 h. Conditions: observations at 4 h and 24 h postimmersion. The method in brief:
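Mixed-stage C. elegans (~50 per well, L1 to adult) in M9 buffer exposed to test compound at 100 ppm, 150 ppm or 200 μM final. Motility of larvae and adults scored under dissecting microscope at 4 h and 24 h.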

The test system of data set [2] is Trichostrongylus columbriformis. As to the kind of experiment: In vivo efficacy against T. colubriformis in infected gerbils. Particulars: gerbils infected with T. colubriformis, single oral dose of 50 mg/kg by gavage, worm counts four days post-treatment, % mortality as compared to negative control. The method in brief:
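Gerbils infected with ~800 L3/mL larvae were treated one week later by gavage with a single 50 mg/kg oral dose in PEG 400:DMSO (1:2 v/v), 3 animals per group. Necropsy four days post-treatment, with worms counted under stereoscopes.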

Regarding `O=C1OC(=Cc2ccc(F)cc2)C(O)=C1c1ccc(C(F)(F)F)cc1` (mixture of isomers) [R=H; R1=4-CF3—C6H4**; R2=4-F—C6H4], the Toxicity entry in data set [1] (groups of 3) is on record as “+”. This molecule yielded a Rating with C. elegans (dose 100 ppm) of 9. The molecule further displayed a Mortality in data set [2] of 95.80%.
Consider `N#Cc1ccc(C2=C(O)C(=Cc3ccc(OC(F)(F)F)cc3)OC2=O)cc1` (mixture of isomers) [R=H; R1=4-CN—C6H4**; R2=4-OCF3—C6H4], for which the Toxicity result in data set [1] (groups of 3) is on record as “+”. This molecule gave a Rating with C. elegans (dose 100 ppm) of 9. In addition, the Mortality in data set [2] was determined as 90.00%.
As for `O=C1OC(=Cc2ccc(F)cc2)C(O)=C1c1ccc(Cl)cc1` (mixture of isomers) [R=H; R1=4-Cl—C6H4**; R2=4-F—C6H4], in data set [1] (groups of 3), the Toxicity entry is “+”. The same molecule came in with a Rating with C. elegans (dose 100 ppm) of 9. Further, the Mortality in data set [2] came to 72.60%.
`O=C1OC(=Cc2ccc(Cl)c(Cl)c2)C(O)=C1c1ccc(OC(F)(F)F)cc1` (mixture of isomers) [R=H; R1=4-OCF3—C6H4**; R2=3,4-diCl—C6H3]: the Toxicity result in data set [1] (groups of 3) is “+”. Moreover, the Rating in the data set on C. elegans (dose 100 ppm) is reported as 9. The Mortality in data set [2] was determined as 100.0%.
As to `O=C1OC(=Cc2ccc(F)c(F)c2)C(O)=C1c1ccc(OC(F)(F)F)cc1` (mixture of isomers) [R=H; R1=4-OCF3—C6H4**; R2=3,4-diF—C6H3], the Toxicity result in data set [1] (groups of 3) was “+”. Moreover, the Rating in the data set with C. elegans (dose 100 ppm) was 9. The Mortality in data set [2] worked out at 100.0%.
On the same counts, the results for `O=C1OC(=Cc2ccc(C(F)(F)F)cc2)C(O)=C1c1ccc(OC(F)(F)F)cc1` (mixture of isomers) [R=H; R1=4-OCF3—C6H4**; R2=4-CF3—C6H4] are “+”, 9 and 55.50%.
As to `N#Cc1ccc(C=C2OC(=O)C(c3ccc(OC(F)(F)F)cc3)=C2O)cc1` (mixture of isomers) [R=H; R1=4-OCF3—C6H4**; R2=4-CN—C6H4], the Toxicity entry in data set [1] (groups of 3) was “+”. This molecule came in with a Rating with C. elegans (dose 100 ppm) of 9. This molecule displayed a Mortality in data set [2] of 88.90%.
For the molecule `O=C1OC(=Cc2ccc(Cl)cc2)C(O)=C1c1ccc(OC(F)(F)F)cc1` (mixture of isomers) [R=H; R1=4-OCF3—C6H4**; R2=4-Cl—C6H4], the Toxicity entry in data set [1] (groups of 3) was “+”. The molecule further displayed a Rating with C. elegans (dose 100 ppm) of 9. Besides, in data set [2], the Mortality amounted to 100.0%.
Regarding `O=C1OC(=Cc2ccc(F)cc2)C(O)=C1c1ccc(OC(F)(F)F)cc1` (mixture of isomers) [R=H; R1=4-OCF3—C6H4**; R2=4-F—C6H4], in data set [1] (groups of 3), the Toxicity entry is given as “+”. The molecule also gave a Rating in the data set on C. elegans (dose 100 ppm) of 9. In data set [2], this molecule had a Mortality of 0.00%.
In the case of `O=C1OC(=Cc2ccc(OC(F)(F)F)cc2)C(O)=C1c1ccc(OC(F)(F)F)cc1` (mixture of isomers) [R=H; R1=4-OCF3—C6H4**; R2=4-OCF3—C6H4], the Toxicity result in data set [1] (groups of 3) is “+”. The molecule also showed a Rating in the data set on C. elegans (dose 100 ppm) of 9. In data set [2], this molecule gave a Mortality of 100.0%.
With `O=C1O/C(=C\c2ccc(-c3ccccc3)cc2)C(O)=C1c1cc(C(F)(F)F)cc(C(F)(F)F)c1` [R=H; R1=3,5-diCF3—C6H3; R2=4-biphenyl], the Toxicity result in data set [1] (groups of 3) was “+”. In the data set with C. elegans (dose 150 ppm), the Rating came to 9. In data set [2], this molecule had a Mortality of 60.80%.
With `O=C1O/C(=C\c2ccc(-c3ccccc3)cc2)C(O)=C1c1cc(Cl)cc(Cl)c1` [R=H; R1=3,5-diCl—C6H3; R2=4-biphenyl], in data set [1] (groups of 3), the Toxicity result is given as “+”. Also, the Rating in the data set with C. elegans (dose 150 ppm) worked out at 9. The molecule further had a Mortality in data set [2] of 52.60%.
On to `N#Cc1ccc(/C=C2\OC(=O)C(c3ccc(C#N)cc3)=C2O)cc1` [R=H; R1=4-CN—C6H4; R2=4-CN—C6H4], for which the Toxicity entry in data set [1] (groups of 3) is given as “+”. Moreover, in data set [2], the Mortality stood at 62.43%.
For `N#Cc1ccc(C2=C(O)C(=Cc3ccc(Cl)cc3)OC2=O)cc1` [R=H; R1=4-CN—C6H4; R2=4-Cl—C6H4], the Toxicity result in data set [1] (groups of 3) is recorded as “+”. Also, the Mortality in data set [2] worked out at 90.20%.
As for `N#Cc1ccc(-c2ccc(/C=C3\OC(=O)C(c4ccc(Cl)cc4)=C3O)cc2)cc1` [R=H; R1=4-Cl—C6H4; R2=4-(4′-CN-biphenyl)], the Toxicity entry in data set [1] (groups of 3, 50 mg/kg) is on record as “+”. In the data set on C. elegans (dose 150 ppm), this molecule displayed a Rating of 9. Further, the Mortality in data set [2] (50 mg/kg) is listed as 48.90%.
As to `O=C1O/C(=C\c2ccc(-c3ccc(Cl)cc3)cc2)C(O)=C1c1ccc(Cl)cc1` [R=H; R1=4-Cl—C6H4; R2=4-(4′-Cl-biphenyl)], in data set [1] (groups of 3), the Toxicity result is “+”. In the data set on C. elegans (dose 150 ppm), the Rating was found to be 9. Also, the Mortality in data set [2] amounted to 61.33%.
Turning to `N#Cc1ccc(/C=C2\OC(=O)C(c3ccc(Cl)cc3)=C2O)cc1` [R=H; R1=4-Cl—C6H4; R2=4-CN—06H4], the Toxicity entry in data set [1] (groups of 3) is “+”. In data set [2], the Mortality came out at 84.54%.
Turning to `O=C1O/C(=C\c2ccc(Cl)cc2)C(O)=C1c1ccc(Cl)cc1` [R=H; R1=4-Cl—C6H4; R2=4-Cl—C6H4], the Toxicity result in data set [1] (groups of 3) is “+”. The molecule further came in with a Rating in the data set with C. elegans (dose 150 ppm) of 9. In data set [2], the Mortality came to 79.78%.
Regarding `O=C1O/C(=C\c2ccc(-c3ccccc3)cc2)C(O)=C1c1ccc(Cl)cc1` [R=H; R1=4-Cl—C6H4; R2=4-biphenyl], in data set [1] (groups of 3), the Toxicity result is listed as “+”. Besides, the Mortality in data set [2] was determined as 33.10%.
